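Values below derive from 48-hour exposures of cells grown in 96-well plates, with endpoints linearly interpolated between the two concentrations bracketing the appropriate inhibition level. GI50: concentration for 50% inhibition of growth.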 The source made the active and inactive calls. Rule as the data show it: active = GI50 up to about 1.1 µM and inactive = higher.
What was measured:
Test in all cases: growth of human tumour cells (NCI), 48 h
[1] = tested on: NCI-H23
[2] = tested on: SF-268
[3] = tested on: KM12
[4] = tested on: A549
[5] = tested on: NCI-H460
[6] = tested on: SF-539
[7] = tested on: RXF 393
[8] = tested on: A498
[9] = tested on: OVCAR-4
[10] = tested on: K562
[11] = tested on: SK-MEL-28
[12] = tested on: LOX IMVI
[13] = tested on: HCC 2998
[14] = tested on: UACC-62
[15] = tested on: 786-0
[16] = tested on: UO-31
[17] = tested on: ACHN
[18] = tested on: Malme-3M
[19] = tested on: HL-60
[20] = tested on: SK-MEL-2
[21] = tested on: IGROV-1
[22] = tested on: SN12C
[23] = tested on: NCI-H522
[24] = tested on: NCI-H226
[25] = tested on: TK-10
[26] = tested on: HCT-116
[27] = tested on: KM-20L2
[28] = tested on: SK-MEL-5
[29] = tested on: HT-29
[30] = tested on: HOP-62
[31] = tested on: M19-MEL
[32] = tested on: M14
[33] = tested on: CAKI-1
[34] = tested on: SNB-78
[35] = tested on: CCRF-CEM
[36] = tested on: UACC-257
[37] = tested on: EKVX
[38] = tested on: COLO 205
[39] = tested on: MOLT-4
[40] = tested on: SW-620
[41] = tested on: OVCAR-5
[42] = tested on: HOP-92
[43] = tested on: DLD-1
[44] = tested on: XF498
[45] = tested on: LXFL 529
[46] = tested on: U-251
[47] = tested on: OVCAR-3
[48] = tested on: HCT-15
[49] = tested on: SF-295
[50] = tested on: OVCAR-8
[51] = tested on: SNB-19
[52] = tested on: RPMI-8226
[53] = tested on: DMS-114
[54] = tested on: SK-OV-3
[55] = tested on: HOP-18
[56] = tested on: SNB-75
[57] = tested on: DMS-273
[58] = tested on: SR

Q: For `CC1=NN(C(=O)Cc2ccccc2)C(=O)/C1=C\c1ccccc1O`, which GI50 [1] is on record?
A: > 100 µM (inactive)

Q: What about the GI50 [2] of the same molecule?
A: > 100 µM (inactive)

Q: And the GI50 [3]?
A: > 100 µM (inactive)

Q: What about the GI50 [4] of the same molecule?
A: > 100 µM (inactive)

Q: What about the GI50 [5] of the same molecule?
A: > 100 µM (inactive)

Q: What about the GI50 [6] of the same molecule?
A: > 100 µM (inactive)

Q: What about the GI50 [7] of the same molecule?
A: > 100 µM (inactive)

Q: What about the GI50 [8] of the same molecule?
A: > 100 µM (inactive)

Q: And the GI50 [9]?
A: > 100 µM (inactive)

Q: And the GI50 [10]?
A: > 100 µM (inactive)

Q: And the GI50 [11]?
A: > 100 µM (inactive)

Q: And the GI50 [12]?
A: > 100 µM (inactive)

Q: And the GI50 [13]?
A: > 100 µM (inactive)

Q: And the GI50 [14]?
A: > 100 µM (inactive)

Q: What about the GI50 [15] of the same molecule?
A: > 100 µM (inactive)

Q: What about the GI50 [16] of the same molecule?
A: > 100 µM (inactive)

Q: And the GI50 [17]?
A: > 100 µM (inactive)

Q: What about the GI50 [18] of the same molecule?
A: > 100 µM (inactive)

Q: What about the GI50 [19] of the same molecule?
A: > 100 µM (inactive)

Q: And the GI50 [20]?
A: > 100 µM (inactive)

Q: What about the GI50 [21] of the same molecule?
A: > 100 µM (inactive)

Q: And the GI50 [22]?
A: > 100 µM (inactive)

Q: What about the GI50 [23] of the same molecule?
A: > 100 µM (inactive)

Q: What about the GI50 [24] of the same molecule?
A: > 100 µM (inactive)

Q: And the GI50 [25]?
A: > 100 µM (inactive)

Q: And the GI50 [26]?
A: > 100 µM (inactive)

Q: What about the GI50 [27] of the same molecule?
A: > 100 µM (inactive)

Q: And the GI50 [28]?
A: > 100 µM (inactive)

Q: What about the GI50 [29] of the same molecule?
A: > 100 µM (inactive)

Q: And the GI50 [30]?
A: > 100 µM (inactive)

Q: What about the GI50 [31] of the same molecule?
A: > 100 µM (inactive)

Q: What about the GI50 [32] of the same molecule?
A: > 100 µM (inactive)

Q: And the GI50 [33]?
A: > 100 µM (inactive)

Q: And the GI50 [34]?
A: > 100 µM (inactive)

Q: What about the GI50 [35] of the same molecule?
A: > 100 µM (inactive)

Q: And the GI50 [36]?
A: > 100 µM (inactive)

Q: What about the GI50 [37] of the same molecule?
A: > 100 µM (inactive)

Q: What about the GI50 [38] of the same molecule?
A: > 100 µM (inactive)

Q: What about the GI50 [39] of the same molecule?
A: > 100 µM (inactive)

Q: And the GI50 [40]?
A: > 100 µM (inactive)

Q: And the GI50 [41]?
A: > 100 µM (inactive)

Q: And the GI50 [42]?
A: > 100 µM (inactive)

Q: And the GI50 [43]?
A: > 100 µM (inactive)

Q: What about the GI50 [44] of the same molecule?
A: > 100 µM (inactive)

Q: What about the GI50 [45] of the same molecule?
A: > 100 µM (inactive)

Q: And the GI50 [46]?
A: > 100 µM (inactive)

Q: And the GI50 [47]?
A: > 100 µM (inactive)

Q: What about the GI50 [48] of the same molecule?
A: > 100 µM

Q: And the GI50 [49]?
A: > 100 µM (inactive)

Q: And the GI50 [50]?
A: > 100 µM (inactive)

Q: What about the GI50 [51] of the same molecule?
A: > 100 µM (inactive)

Q: And the GI50 [52]?
A: > 100 µM (inactive)

Q: And the GI50 [53]?
A: > 100 µM (inactive)

Q: And the GI50 [54]?
A: > 100 µM (inactive)

Q: What does the source list for `O=C1O/C(=C(\Br)c2cccc3ccccc23)c2ccccc21`?
A: GI50 [1]: > 40 µM (inactive); GI50 [2]: > 37.5 µM (inactive); GI50 [3]: 29.7 µM (inactive); GI50 [55]: 19.5 µM (inactive); GI50 [4]: 20 µM (inactive); GI50 [5]: > 53.6 µM (inactive); GI50 [6]: 48.1 µM (inactive); GI50 [7]: > 49 µM (inactive); GI50 [8]: 19.1 µM (inactive); GI50 [9]: 16.5 µM (inactive); GI50 [10]: 25.2 µM (inactive); GI50 [11]: > 35.1 µM (inactive); GI50 [12]: 73.6 µM (inactive); GI50 [13]: > 65.3 µM (inactive); GI50 [14]: 35.2 µM (inactive); GI50 [15]: 17.4 µM (inactive); GI50 [16]: > 41.3 µM (inactive); GI50 [17]: 34.2 µM (inactive); GI50 [18]: > 46.7 µM (inactive); GI50 [19]: 19.5 µM (inactive); GI50 [20]: > 42.8 µM (inactive); GI50 [56]: > 50.4 µM (inactive); GI50 [21]: 27.9 µM (inactive); GI50 [22]: 21.3 µM (inactive); GI50 [23]: 16 µM (inactive); GI50 [24]: > 41.3 µM (inactive); GI50 [25]: 30.4 µM (inactive); GI50 [26]: 31.4 µM (inactive); GI50 [27]: 25.1 µM (inactive); GI50 [28]: 22.8 µM (inactive); GI50 [57]: 24.5 µM (inactive); GI50 [58]: 19.7 µM (inactive); GI50 [29]: 22.5 µM (inactive); GI50 [30]: > 100 µM (inactive); GI50 [31]: 36.1 µM (inactive); GI50 [32]: > 44.2 µM (inactive); GI50 [34]: 30.8 µM (inactive); GI50 [35]: 20 µM (inactive); GI50 [36]: > 40.9 µM (inactive); GI50 [37]: > 42 µM (inactive); GI50 [38]: 28.3 µM (inactive); GI50 [39]: 21.5 µM (inactive); GI50 [40]: 27 µM (inactive); GI50 [41]: > 40.2 µM (inactive); GI50 [42]: 29 µM (inactive); GI50 [43]: 23.5 µM (inactive); GI50 [45]: > 47.1 µM (inactive); GI50 [46]: > 100 µM (inactive); GI50 [47]: 26.8 µM (inactive); GI50 [48]: 31.3 µM; GI50 [49]: > 38.1 µM (inactive); GI50 [50]: > 43.7 µM (inactive); GI50 [52]: 22.2 µM (inactive); GI50 [53]: > 33.3 µM (inactive); GI50 [54]: > 39.8 µM (inactive)
